Consider 30 compounds from ChEMBL document CHEMBL5390258, “Recent Progress and Prospects of Small Molecules for NLRP3 Inflammasome Inhibition” (J Med Chem, 2023).

Experiment [1] addresses T1, NACHT, LRR and PYD domains-containing protein 3 (Homo sapiens, UniProt Q96P20). Briefly: Inhibition of NLRP3 in human PBMC cells assessed as reduction in TNF alpha level preincubated for 30 mins followed by LPS addition measured after 6 hrs. In kind it is cell-based.
Experiment [2] addresses T1, NACHT, LRR and PYD domains-containing protein 3. Briefly: Inhibition of NLRP3 in human THP-1 cells assessed as reduction in IL-1beta production measured after 3 hrs by AlphaLISA assay. The experiment is classed as cell-based. (Bead proximity is the source of the signal in Alpha formats.)
The target in experiment [3] is T2, NACHT, LRR and PYD domains-containing protein 3 (Mus musculus, UniProt Q8R4B8). Put plainly: Inhibition of NLRP3 in LPS induced mouse BV-2 cells assessed as reduction in IL-1beta production pretreated for 30 mins followed by nigericin addition measured after 2 hrs by ELISA assay. The experiment is classed as cell-based. A general note: ELISA stands for enzyme-linked immunosorbent assay.

Experiment [4] has as its target T1, NACHT, LRR and PYD domains-containing protein 3. Put plainly: Inhibition of NLRP3 in human THP-1 cells assessed as reduction in IL-1beta production measured after 1 hrs by ELISA assay. The experiment is classed as cell-based.
The target of experiment [5] is T2, NACHT, LRR and PYD domains-containing protein 3. Put plainly: Inhibition of NLRP3 in mouse BMDM cells assessed as reduction in IL-1beta production. The experiment is classed as cell-based.
Experiment [6] shares this target. Briefly: Inhibition of NLRP3 in mouse BMDM cells assessed as reduction in IL-1beta production measured after 3 hrs. In kind it is cell-based.
In experiment [7] the target is T1, NACHT, LRR and PYD domains-containing protein 3. Briefly: Inhibition of NLRP3 in human THP-1 cells assessed as reduction in IL-1beta production. The experiment is classed as cell-based.
The target of experiment [8] is T2, NACHT, LRR and PYD domains-containing protein 3. Briefly: Inhibition of NLRP3 in LPS induced mouse BMDM cells assessed as reduction in IL-1beta production measured after 30 mins by ELISA assay. The experiment is classed as cell-based.
For experiment [9], the system named is THP-1. Briefly: Induction of pyroptosis in human THP-1 cells. The experiment is classed as functional, cell-based.
Experiment [10] concerns THP-1. Briefly: Induction of pyroptosis in human THP-1 cells by AlphaLisa assay. In kind it is functional, cell-based.
Experiment [11] addresses T2, NACHT, LRR and PYD domains-containing protein 3. Briefly: Inhibition of NLRP3 in mouse J774A.1 cells assessed as reduction of IL-1beta production. In kind it is cell-based, J774.A1.
Experiment [12] addresses T1, NACHT, LRR and PYD domains-containing protein 3. Briefly: Inhibition of NLRP3 in human THP-1 cells assessed as reduction in IL-1beta production measured after 3 hrs by resazurin staining based assay. The experiment is classed as cell-based. (In general: Resazurin is reduced to fluorescent resorufin, in cell work by metabolically active cells.)
Experiment [13] has the same target. Put plainly: Inhibition of NLRP3 in human THP-1 cells assessed as reduction in IL-1beta production measured after 3 hrs. The experiment is classed as cell-based.
Experiment [14] has the same target. Briefly: Inhibition of NLRP3 in human THP-1 cells assessed as reduction in IL-1beta production pre incubated for 3 hrs followed by nigericin addition measured after 1 hrs by resazurin staining based assay. In kind it is cell-based.
The target is the same in experiment [15]. Put plainly: Inhibition of NLRP3 in human PBMC cells assessed as reduction in IL-1beta production preincubated for 30 mins followed by LPS addition measured after 6 hrs. The experiment is classed as cell-based.
Experiment [16] has the same target. Briefly: Inhibition of NLRP3 in human MDM cells assessed as reduction in IL-1beta production measured after 3 hrs by AlphaLISA assay. In kind it is cell-based.
The target is the same in experiment [17]. Put plainly: Inhibition of NLRP3 in human THP-1 cells assessed as reduction in IL-1beta production by AlphaLISA assay. In kind it is cell-based.
The target is the same in experiment [18]. Put plainly: Inhibition of NLRP3 in LPS induced human PBMC cells assessed as reduction in IL-1beta preincubated for 30 mins followed by ATP addition measured after 1 hrs HTRF assay. In kind it is cell-based.

T1 sequence (Q96P20 whole entry, the tested form may be a part): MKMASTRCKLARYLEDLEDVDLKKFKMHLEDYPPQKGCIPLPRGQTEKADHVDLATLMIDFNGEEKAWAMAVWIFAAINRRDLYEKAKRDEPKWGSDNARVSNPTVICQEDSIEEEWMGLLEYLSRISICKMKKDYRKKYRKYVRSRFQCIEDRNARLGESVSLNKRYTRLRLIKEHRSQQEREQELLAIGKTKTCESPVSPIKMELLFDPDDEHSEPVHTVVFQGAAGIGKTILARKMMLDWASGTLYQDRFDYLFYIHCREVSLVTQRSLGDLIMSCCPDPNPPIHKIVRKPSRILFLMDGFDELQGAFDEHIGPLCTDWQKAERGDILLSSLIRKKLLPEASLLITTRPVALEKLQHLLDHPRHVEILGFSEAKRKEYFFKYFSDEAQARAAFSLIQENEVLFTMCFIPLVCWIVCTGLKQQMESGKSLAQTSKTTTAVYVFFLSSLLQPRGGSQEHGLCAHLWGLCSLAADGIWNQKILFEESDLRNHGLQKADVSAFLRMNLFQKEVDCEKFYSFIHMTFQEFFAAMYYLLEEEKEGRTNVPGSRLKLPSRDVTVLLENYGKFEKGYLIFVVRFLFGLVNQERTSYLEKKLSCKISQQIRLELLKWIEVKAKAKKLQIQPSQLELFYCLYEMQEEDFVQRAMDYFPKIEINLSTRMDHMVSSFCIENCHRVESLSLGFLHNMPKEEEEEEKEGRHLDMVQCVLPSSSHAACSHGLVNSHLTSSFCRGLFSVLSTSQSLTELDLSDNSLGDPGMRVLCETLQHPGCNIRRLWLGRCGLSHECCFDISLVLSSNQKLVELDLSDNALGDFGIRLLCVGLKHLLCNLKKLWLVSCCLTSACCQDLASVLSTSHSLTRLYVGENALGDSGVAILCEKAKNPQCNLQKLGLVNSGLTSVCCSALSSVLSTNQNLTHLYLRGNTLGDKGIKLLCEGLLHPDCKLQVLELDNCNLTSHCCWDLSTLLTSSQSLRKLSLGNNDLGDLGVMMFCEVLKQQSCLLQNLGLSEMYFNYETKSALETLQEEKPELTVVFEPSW
T2 sequence (Q8R4B8 whole entry, the tested form may be a part): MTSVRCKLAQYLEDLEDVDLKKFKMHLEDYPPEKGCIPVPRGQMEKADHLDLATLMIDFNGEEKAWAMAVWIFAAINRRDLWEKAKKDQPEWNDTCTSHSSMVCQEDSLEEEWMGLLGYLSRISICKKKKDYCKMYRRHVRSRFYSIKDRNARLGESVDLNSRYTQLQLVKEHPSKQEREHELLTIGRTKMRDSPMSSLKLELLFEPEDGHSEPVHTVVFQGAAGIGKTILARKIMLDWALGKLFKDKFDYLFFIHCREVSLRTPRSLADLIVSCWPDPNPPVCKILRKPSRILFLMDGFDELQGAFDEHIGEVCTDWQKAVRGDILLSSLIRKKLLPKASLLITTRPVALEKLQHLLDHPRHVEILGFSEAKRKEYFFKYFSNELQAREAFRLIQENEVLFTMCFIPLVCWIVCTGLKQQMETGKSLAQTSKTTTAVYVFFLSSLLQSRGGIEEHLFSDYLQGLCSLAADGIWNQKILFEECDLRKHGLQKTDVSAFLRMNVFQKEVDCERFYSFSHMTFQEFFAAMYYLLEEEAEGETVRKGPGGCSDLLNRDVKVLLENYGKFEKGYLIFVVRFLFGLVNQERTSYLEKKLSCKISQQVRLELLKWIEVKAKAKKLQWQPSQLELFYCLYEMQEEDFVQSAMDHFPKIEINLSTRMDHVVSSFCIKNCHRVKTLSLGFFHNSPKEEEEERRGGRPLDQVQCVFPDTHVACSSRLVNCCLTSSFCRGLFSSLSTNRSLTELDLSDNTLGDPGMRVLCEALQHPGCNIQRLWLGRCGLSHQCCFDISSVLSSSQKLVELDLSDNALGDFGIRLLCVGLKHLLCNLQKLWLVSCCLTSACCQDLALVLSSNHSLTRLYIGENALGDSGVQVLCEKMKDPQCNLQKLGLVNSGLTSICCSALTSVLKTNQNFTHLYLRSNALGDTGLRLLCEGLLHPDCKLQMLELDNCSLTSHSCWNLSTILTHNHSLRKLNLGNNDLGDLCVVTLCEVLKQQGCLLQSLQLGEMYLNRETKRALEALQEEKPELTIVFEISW

What is called IC50 is the concentration at which inhibition is half-maximal. Take `CC(C)c1nc2c(C(C)C)nn(CC(=O)Nc3ccc4nncn4c3)c(=O)c2s1`: in experiment [1], the IC50 was found to be 11500 nM. As for `CC(C)c1cc(F)cc2c1CC(=O)NS(=O)(=O)c1ccn(n1)C(C)(C)COc1cc-2ccn1`, the half-inhibitory concentration (IC50) in experiment [2] is at most 100 nM. For the compound `COC(=O)c1cccc(C(=O)NC2(C(=O)Nc3c4c(cc5c3CCC5)CCC4)CC2)c1`, the IC50 in experiment [3] came out at 2050 nM. `CC(C)c1nn(C(C)C(=O)Nc2ncc(F)cn2)c(=O)c2ccc(Br)cc12` (stereo unspecified): the 50% inhibitory concentration (IC50) in experiment [4] worked out at 3660 nM. For the compound `COC(C)(C)Cn1ccc(S(=O)(=O)c2nnc(Nc3c4c(cc5c3CCC5)CCC4)[nH]2)n1`, the IC50 in [2] is under 500 nM. Regarding `O=C(CBr)C1CCC1`, the IC50 in experiment [5] was about 5000 nM. In the case of `CC1(O)CCCc2oc(S(=O)(=O)NC(=O)Nc3c4c(c(Br)c5c3CCC5)CCC4)cc21` (stereo unspecified), the IC50 in [6] was under 100 nM. With `CC(C)c1cc(F)cc(C(C)C)c1NC(=O)N=[S+](N)([O-])c1ccccc1-c1ccccc1` (stereo unspecified), the IC50 in experiment [7] is over 30000 nM. In the case of `NS(=O)(=O)c1cccc(/C=C2\SC(=S)N(CC3CCCCC3)C2=O)c1`, the IC50 in experiment [8] is 900 nM. As a reminder, the EC50 is the midpoint of the concentration-response curve. As to `CN1CCC[C@@H](Nc2nnc(-c3ccc(C(F)(F)F)cc3O)c3c2ncn3C)C1`, the EC50 in the experiment on THP-1 [9] is under 20 nM. On to `CCN1CCC[C@@H](Nc2nc3nc(-c4c(C)cc(Cl)cc4O)ccc3o2)C1`, for which the IC50 in the experiment on THP-1 [10] came out at 0.4 nM. On to `Cc1ccc(S(=O)(=O)/C=C/C#N)cc1`, for which the IC50 in experiment [11] was 1540 nM.

As for `CCc1c(-c2cccc(F)c2)c(C(C)C)nn(CC(=O)Nc2ncncc2F)c1=O`, the IC50 in [4] stood at 35300 nM. Take `O=C(Nc1c2c(cc3c1CCO3)CCC2)NS(=O)(=O)c1ccn(C2CC2)n1`: the IC50 in experiment [12] is at most 250 nM. Turning to `CC(C)c1cc(NC(=O)NS(=O)(=O)C(c2cnn(C)c2)C2CCCN(C)C2)c(C(C)C)s1` (stereo unspecified), in experiment [13], the IC50 was under 100 nM.

On to `CN1CCC(Oc2cc(-c3ccc4c(c3NC(=O)NS(=O)(=O)C3CC3)CCC4)ccn2)CC1`, for which the IC50 in experiment [14] was at most 250 nM. With `COc1cc(C)c(S(=O)(=O)NC(=O)Nc2c3c(cc4c2CCC4)CCC3)cn1`, in experiment [14], the half-maximal inhibitory concentration (IC50) was under 1000 nM. Consider `CC(C)c1nn(CC(=O)Nc2ccc3nncn3n2)c(=O)cc1N1CC2CC2C1` (stereo unspecified), for which, in [15], the EC50 was found to be 90 nM. Compound `CN1CCC[C@@H](Nc2nnc(-c3ccc(C(F)(F)F)cc3O)c3c2nc(C2CC2)n3C)C1` had an EC50 in the experiment on THP-1 [9] of under 20 nM. For the compound `CC(C)c1nn(CC(=O)Nc2ccncn2)c(=O)c2cc(I)nn12`, the IC50 in experiment [15] is under 12 nM; in [1] it was over 10000 nM.

With `CC(C)c1nn(CC(=O)Nc2ccc3nncn3c2)c(=O)cc1Oc1ccccc1`, the EC50 in [15] is over 15000 nM. As to `CC(C)(O)c1ccc2c(c1)[S+]([O-])(NC(=O)Nc1c3c(cc4c1CCC4)CCC3)=NC2=O` (stereo unspecified), the IC50 in experiment [16] was under 1000 nM. Regarding `CN1CCC[C@@H](Nc2nnc(-c3ccc(C(F)(F)F)cc3O)c3ncn(C)c23)C1`, in the experiment on THP-1 [9], the EC50 was under 20 nM. In turn, `CN1CCC[C@@H](Nc2nnc(-c3sccc3O)c3c2ncn3C)C1` came in with an EC50 in the experiment on THP-1 [9] of over 1000 nM.

In the case of `Cc1cc(Br)cc(C)c1-n1cc2c(=O)[nH]c(N3C=COCC3)nc2n1`, in experiment [7], the IC50 came out at 3 nM. As for `CC(C)(O)c1coc(S(=O)(=O)NC(=O)Nc2c3c(cc4c2CCC4)CCC3)c1`, the IC50 in [3] was found to be 3930 nM.

For `O=C1Nc2c(ccc3c2CCC3)-c2ccnc(c2)OCCn2cc(F)c(n2)S(=O)(=O)N1`, in [17], the IC50 is under 100 nM.

The compound `Cc1cc(Cl)cc(O)c1-c1ccc2oc(N[C@H]3CCCN4CCC[C@H]34)nc2n1` yielded an IC50 in the experiment with THP-1 [10] of 0.6 nM. As for `COC(=O)C12CC(NC(=O)Cn3nc(C(C)C)c(OCC(C)C)cc3=O)(C1)C2`, the EC50 in experiment [15] is 10 nM. For the compound `CC(C)OC(=O)c1nc(Nc2c3c(cc4c2CCC4)CCC3)cs1`, the IC50 in experiment [18] was under 1000 nM.
